US9512414B2, “Thermostable beta-glucosidase” (HONDA MOTOR CO., LTD., priority 2014, dated 2016)

System: thermostable β-glucosidase AR19G-228-1 (GH family 1), SEQ ID NO: 2, from hot spring soil metagenome AR19, expressed in E. coli
Experiment: Kinetics of PNPG hydrolysis by AR19G-228-1 β-glucosidase
Type: biochemical
Conditions: 100° C., acetate buffer pH 5.5
Text: The β-glucosidase activity using PNPG as a substrate of the enzyme protein (AR19G-228-1) encoded by the AR19G-228-1 gene was investigated. A solution prepared by dissolving PNPG (manufactured by Sigma-Aldrich Co. LLC.) in water and adjusting to a predetermined final concentration was used as the substrate solution. It should be noted that the PNPG substrate solutions used in the experiments described below all used the PNPG aqueous solution prepared by the above method. PNPG (manufactured by Sigma-Aldrich Co. LLC.) was used as the substrate for measuring the β-glucosidase activity. In the measurements, the purified enzyme obtained in section <7> above was diluted to a concentration of 0.0075 mg/mL with 0.05 M Tris-HCl buffer (pH 8.0) and used.
For the reaction at a temperature of 50 to 90° C., a Thermomixer (manufactured by the Eppendorf AG) was used, a sample tube with a volume of 1.5 mL was used as a reaction vessel, and the amount of reaction solution was set to 200 μL. The reaction solution was composed of 5 μL of diluted purified enzyme, 45 μL of purified water, 50 μL of 200 mM acetate buffer (pH 5.5), and 100 μL of 60 mM PNPG aqueous solution. […]
In all measurements, a mixed solution prepared by replacing the purified enzyme solution with 50 mM Tris-HCl buffer (pH 8.0) and then reacting the solution under the same conditions was used as a control. […] The amount of p-nitrophenol in the supernatant was determined by measuring the absorbance at 420 nm using a spectrophotometer, calculating the amount of p-nitrophenol in the supernatant using a calibration curve prepared with p-nitrophenol, and then determining the amount of p-nitrophenol produced by the enzymatic hydrolysis by the difference from the control. […] In addition, each measurement was performed for three independent experiments, and a mean value and a standard error were determined. […]

`O=[N+]([O-])c1ccc(O[C@@H]2O[C@H](CO)[C@@H](O)[C@H](O)[C@H]2O)cc1` [PNPG, p-nitrophenyl-β-D-glucopyranoside] gave a Km (PNPG 0.5-100 mM) of 4.5 mM, a Vmax (PNPG 0.5-100 mM) of 430.3 U/mg and a Kcat/Km (PNPG, calculated from Vmax and Km) of 91500 M⁻¹ s⁻¹.
